Measurements reported in ChEMBL document CHEMBL1208673, “CoMFA and CoMSIA 3D-QSAR studies on quionolone caroxylic acid derivatives inhibitors of HIV-1 integrase” (Eur J Med Chem, 2010).
pIC50: −log10 of the molar value.

Target: Human immunodeficiency virus type 1 integrase (Human immunodeficiency virus 1, UniProt Q7ZJM1)
Test: Inhibition of HIV-1 integrase

Human immunodeficiency virus type 1 integrase, sequence (Q7ZJM1 whole entry): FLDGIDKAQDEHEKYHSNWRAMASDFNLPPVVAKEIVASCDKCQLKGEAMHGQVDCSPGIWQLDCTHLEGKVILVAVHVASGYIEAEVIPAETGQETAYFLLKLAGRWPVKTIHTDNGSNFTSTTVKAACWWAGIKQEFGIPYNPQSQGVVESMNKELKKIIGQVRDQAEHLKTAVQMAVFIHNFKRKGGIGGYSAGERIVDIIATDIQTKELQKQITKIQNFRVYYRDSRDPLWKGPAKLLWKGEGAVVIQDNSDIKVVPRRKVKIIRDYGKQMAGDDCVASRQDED

## O=C(O)Cn1cc(C(=O)O)c(=O)c2cc(Cc3cccc(Cl)c3Cl)ccc21
  pIC50: 7.50

## COc1cc2c(cc1Cc1cccc(Cl)c1F)c(=O)c(C(=O)O)cn2CCO
  pIC50: 8.05

## O=C(O)c1c[nH]c2ccc(Cc3cccc(Cl)c3Cl)cc2c1=O
  pIC50: 7.16
